Measured values reported in PubChem BioAssay AID220 (DTP/NCI, 2004).
Several values for one entry are separate records, joined by “and”; a condition that tells them apart may be missing. Equal values may be shown once. Records with an inconclusive call do not appear.

System: CD8F1 mice, subcutaneous mammary adenocarcinoma, T/C%
Assay: NCI In Vivo Anticancer Drug Screen. Data for tumor model Mammary Adenocarcinoma CD8F1 (subcutaneous) in CD8F1
Settings: higher = larger tumour
Method: The antitumor activity of compounds was measured in mice bearing transplantable tumors. Survival or tumor size were measured and the results are expressed as the measurement made in the treated group (T) divided by the measurement made in the vehicle treated control group (C). The tumor model used in this assay is Mammary Adenocarcinoma CD8F1 (subcutaneous) in CD8F1

[1] = endpoint: median tumor weight (est.), dose: 50.0 mg/kg/injection, schedule: Q07DX005 (ip), vehicle: saline with Tween-80
[2] = endpoint: median tumor weight (est.), dose: 100.0 mg/kg/injection, schedule: Q07DX005 (ip), vehicle: saline with Tween-80
[3] = endpoint: median tumor weight (est.), dose: 200.0 mg/kg/injection, schedule: Q07DX005 (ip), vehicle: saline with Tween-80
[4] = endpoint: median tumor weight change, dose: 125.0 mg/kg/injection, schedule: Q01DX001 (ip), vehicle: saline with Tween-80
[5] = endpoint: median tumor weight change, dose: 250.0 mg/kg/injection, schedule: Q01DX001 (ip), vehicle: saline with Tween-80
[6] = endpoint: median tumor weight change, dose: 500.0 mg/kg/injection, schedule: Q01DX001 (ip), vehicle: saline with Tween-80
[7] = endpoint: median tumor weight change, dose: 1000.0 mg/kg/injection, schedule: Q01DX001 (ip), vehicle: saline with Tween-80

## Cc1ccccc1SSc1ccccc1C
[1]
  T/C: 159 % of control
[2]
  T/C: 123 % of control
[3]
  T/C: 179 % of control

## CC1(C)COCN1COC1CCCCC1
[4]
  T/C: 79 % of control

## Nc1nc(-c2ccccc2)c(Br)c(=O)[nH]1
[4]
  T/C: 115 % of control
[5]
  T/C: 96 % of control
[6]
  T/C: 93 % of control
[7]
  T/C: 98 % of control

## COC(=O)[C@@H]1c2cc3c(c(O)c2[C@@H](OC)C[C@@]1(C)O)C(=O)c1c(O)cc2c(c1C3=O)OC1O[C@@]2(C)[C@H](O)[C@@H](N(C)C)[C@@H]1O
endpoint: median tumor weight (est.), dose: 12.5 mg/kg/injection, schedule: Q07DX005 (ip), vehicle: suspension in saline
  T/C: 73 % of control
endpoint: median tumor weight (est.), dose: 50.0 mg/kg/injection, schedule: Q07DX005 (ip), vehicle: suspension in saline
  T/C: 61 % of control and 66 % of control
endpoint: median tumor weight (est.), dose: 100.0 mg/kg/injection, schedule: Q07DX005 (ip), vehicle: suspension in saline
  T/C: 151 % of control

## C=CCNc1ccc(C)cc1
endpoint: median tumor weight (est.), dose: 6.25 mg/kg/injection, schedule: Q07DX005 (ip), vehicle: Klucel (hydroxypropylcellulose) (HPC)
  T/C: 73 % of control
endpoint: median tumor weight (est.), dose: 12.5 mg/kg/injection, schedule: Q07DX005 (ip), vehicle: Klucel (hydroxypropylcellulose) (HPC)
  T/C: 77 % of control
endpoint: median tumor weight (est.), dose: 25.0 mg/kg/injection, schedule: Q07DX005 (ip), vehicle: Klucel (hydroxypropylcellulose) (HPC)
  T/C: 80 % of control
endpoint: median tumor weight (est.), dose: 50.0 mg/kg/injection, schedule: Q07DX005 (ip), vehicle: Klucel (hydroxypropylcellulose) (HPC)
  T/C: 57 % of control
endpoint: median tumor weight (est.), dose: 100.0 mg/kg/injection, schedule: Q07DX005 (ip), vehicle: Klucel (hydroxypropylcellulose) (HPC)
  T/C: 88 % of control
endpoint: median tumor weight (est.), dose: 200.0 mg/kg/injection, schedule: Q07DX005 (ip), vehicle: Klucel (hydroxypropylcellulose) (HPC)
  T/C: 62 % of control

## CC(=O)Oc1ccc[nH]c1=O
endpoint: median tumor weight (est.), dose: 25.0 mg/kg/injection, schedule: Q07DX005 (ip), vehicle: saline with Tween-80
  T/C: 68 % of control
[1]
  T/C: 88 % of control
[2]
  T/C: 93 % of control
[3]
  T/C: 102 % of control
endpoint: median tumor weight (est.), dose: 400.0 mg/kg/injection, schedule: Q07DX005 (ip), vehicle: saline with Tween-80
  T/C: 118 % of control
endpoint: median tumor weight (est.), dose: 800.0 mg/kg/injection, schedule: Q07DX005 (ip), vehicle: saline with Tween-80
  T/C: 54 % of control

## CCCC(=O)O
endpoint: median tumor weight change, dose: 7.81 mg/kg/injection, schedule: Q01DX001 (ip), vehicle: saline
  T/C: 88 % of control
endpoint: median tumor weight change, dose: 15.62 mg/kg/injection, schedule: Q01DX001 (ip), vehicle: saline
  T/C: 166 % of control
endpoint: median tumor weight change, dose: 31.25 mg/kg/injection, schedule: Q01DX001 (ip), vehicle: saline
  T/C: 97 % of control
endpoint: median tumor weight change, dose: 62.5 mg/kg/injection, schedule: Q01DX001 (ip), vehicle: saline
  T/C: 80 % of control
endpoint: median tumor weight change, dose: 125.0 mg/kg/injection, schedule: Q01DX001 (ip), vehicle: saline
  T/C: 71 % of control

## CC(=O)Oc1c[nH]c(=O)[nH]c1=O
[4]
  T/C: 62 % of control
[5]
  T/C: 84 % of control
[6]
  T/C: 32 % of control
[7]
  T/C: 32 % of control

## c1ccc([P+](c2ccccc2)(c2ccccc2)c2ccccc2)cc1
endpoint: median tumor weight (est.), dose: 0.31 mg/kg/injection, schedule: Q07DX004 (ip), vehicle: saline
  T/C: 218 % of control and 86 % of control
endpoint: median tumor weight (est.), dose: 0.31 mg/kg/injection, schedule: Q07DX005 (ip), vehicle: saline
  T/C: 98 % of control
endpoint: median tumor weight (est.), dose: 0.62 mg/kg/injection, schedule: Q04DX005 (ip), vehicle: saline
  T/C: 50 % of control and 67 % of control
endpoint: median tumor weight (est.), dose: 0.62 mg/kg/injection, schedule: Q07DX005 (ip), vehicle: saline
  T/C: 121 % of control
endpoint: median tumor weight (est.), dose: 1.25 mg/kg/injection, schedule: Q04DX005 (ip), vehicle: saline
  T/C: 100 % of control
endpoint: median tumor weight (est.), dose: 1.25 mg/kg/injection, schedule: Q07DX004 (ip), vehicle: saline
  T/C: 124 % of control
endpoint: median tumor weight (est.), dose: 1.25 mg/kg/injection, schedule: Q07DX005 (ip), vehicle: saline
  T/C: 62 % of control
endpoint: median tumor weight (est.), dose: 2.5 mg/kg/injection, schedule: Q04DX005 (ip), vehicle: saline
  T/C: 73 % of control and 76 % of control
endpoint: median tumor weight (est.), dose: 2.5 mg/kg/injection, schedule: Q07DX005 (ip), vehicle: saline
  T/C: 63 % of control

## CCCCCC(O)C1C(=O)OC(C)C(O)/C=C/C=C/C=C/C=C\C=C(\C)C(O)CC(O)CC(O)CC(O)CC(O)CC(O)CC1O (configuration not stated)
endpoint: median tumor weight change, dose: 62.5 mg/kg/injection, schedule: Q01DX001 (ip), vehicle: distilled water + Tween-80
  T/C: 150 % of control
